The target of series [1] is ATP-dependent translocase ABCB1 (Homo sapiens, UniProt P08183). The series is described as follows: Inhibition of P-glycoprotein-mediated daunomycin transport in human K562/R7 cells assessed as accumulation at 5 uM. Conditions: k562/r7, 5 µM. Set-up: scale not given: the % may be the effect or the level left. Format: cell-based.
Series [2] can be described thus: Inhibition of P-glycoprotein NBD2 domain assessed as quenching of intrinsic fluorescence at 60 uM. Set-up: scale not given: the % may be the effect or the level left.
A short description of series [3]: Inhibition of P-glycoprotein NBD2 domain.

pKd: −log10 of the molar value.

Chain of ATP-dependent translocase ABCB1 (P08183 whole entry, the tested form may be a part): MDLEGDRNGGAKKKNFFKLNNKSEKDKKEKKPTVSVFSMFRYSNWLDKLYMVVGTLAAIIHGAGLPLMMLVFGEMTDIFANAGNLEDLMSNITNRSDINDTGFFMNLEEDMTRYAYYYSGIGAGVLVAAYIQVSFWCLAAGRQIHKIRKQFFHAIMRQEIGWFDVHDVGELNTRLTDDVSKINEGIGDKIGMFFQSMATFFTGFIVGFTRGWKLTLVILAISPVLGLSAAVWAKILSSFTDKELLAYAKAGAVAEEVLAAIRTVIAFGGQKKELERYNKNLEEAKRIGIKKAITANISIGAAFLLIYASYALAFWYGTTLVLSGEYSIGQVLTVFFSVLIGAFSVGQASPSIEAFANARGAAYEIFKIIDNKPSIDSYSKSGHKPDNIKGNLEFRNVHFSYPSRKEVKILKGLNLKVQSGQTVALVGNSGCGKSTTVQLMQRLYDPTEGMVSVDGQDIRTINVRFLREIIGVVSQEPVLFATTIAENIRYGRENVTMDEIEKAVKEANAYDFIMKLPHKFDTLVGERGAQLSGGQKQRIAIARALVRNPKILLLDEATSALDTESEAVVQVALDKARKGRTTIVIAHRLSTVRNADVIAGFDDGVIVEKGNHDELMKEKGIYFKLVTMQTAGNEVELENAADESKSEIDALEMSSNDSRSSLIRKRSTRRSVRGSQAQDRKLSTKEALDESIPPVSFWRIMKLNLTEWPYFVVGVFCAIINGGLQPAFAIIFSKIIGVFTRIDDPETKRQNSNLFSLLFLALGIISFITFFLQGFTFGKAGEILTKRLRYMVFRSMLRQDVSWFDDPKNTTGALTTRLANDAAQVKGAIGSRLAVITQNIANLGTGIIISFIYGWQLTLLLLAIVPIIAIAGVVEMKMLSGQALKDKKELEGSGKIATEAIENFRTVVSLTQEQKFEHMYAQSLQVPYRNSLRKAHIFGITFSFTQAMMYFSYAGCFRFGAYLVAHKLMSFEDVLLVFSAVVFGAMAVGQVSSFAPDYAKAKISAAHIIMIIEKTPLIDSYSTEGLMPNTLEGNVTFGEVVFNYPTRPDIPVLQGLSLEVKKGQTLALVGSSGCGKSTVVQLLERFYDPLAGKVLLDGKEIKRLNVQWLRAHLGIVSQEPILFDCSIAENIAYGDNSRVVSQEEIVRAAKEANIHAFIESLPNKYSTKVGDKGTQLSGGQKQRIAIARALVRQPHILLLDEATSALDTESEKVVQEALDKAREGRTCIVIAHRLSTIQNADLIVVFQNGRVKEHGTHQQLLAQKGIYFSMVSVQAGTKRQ

Turning to `CCCCCC(=O)O[C@H]1[C@@H](C)C[C@]2(OC(C)=O)C(=O)/C(C)=C/[C@@H]3[C@H](CC/C(COC(C)=O)=C/[C@@H]12)C3(C)C`, the Activity was 80% in series [1] and 13.8% in series [2].
With `CCCCCC(=O)O[C@H]1[C@@H](C)C[C@]2(OC(C)=O)C(=O)/C(C)=C/[C@@H]3[C@H](CC/C(CO)=C/[C@@H]12)C3(C)C`, the Activity in series [1] was 95%; in series [2], 78.5%. This molecule gave a pKd in series [3] of 4.77.

(Values after ChEMBL document CHEMBL1158894, “A new P-glycoprotein inhibitor from the caper spurge (Euphorbia lathyris)” (J Nat Prod, 2003).)
